# Test results taken from patent US20240150346A1, “CLASS OF HETEROAROMATIC COMPOUND, PREPARATION METHOD THEREFOR AND USE THEREOF” (INNOVSTONE THERAPEUTICS LIMITED, priority 2021, published 2024).
# Structures can show the parent of a compound that is named as a salt. Where two headings read alike, the source gives them in different places.
# Biological target: T1, human-derived receptor TLR7 (Homo sapiens, UniProt Q9NYK1)
# T1 construct: host or cells: HEK-Blue hTLR7 cells (HEK293-derived reporter line)
# T1 sequence (Q9NYK1 27-1049): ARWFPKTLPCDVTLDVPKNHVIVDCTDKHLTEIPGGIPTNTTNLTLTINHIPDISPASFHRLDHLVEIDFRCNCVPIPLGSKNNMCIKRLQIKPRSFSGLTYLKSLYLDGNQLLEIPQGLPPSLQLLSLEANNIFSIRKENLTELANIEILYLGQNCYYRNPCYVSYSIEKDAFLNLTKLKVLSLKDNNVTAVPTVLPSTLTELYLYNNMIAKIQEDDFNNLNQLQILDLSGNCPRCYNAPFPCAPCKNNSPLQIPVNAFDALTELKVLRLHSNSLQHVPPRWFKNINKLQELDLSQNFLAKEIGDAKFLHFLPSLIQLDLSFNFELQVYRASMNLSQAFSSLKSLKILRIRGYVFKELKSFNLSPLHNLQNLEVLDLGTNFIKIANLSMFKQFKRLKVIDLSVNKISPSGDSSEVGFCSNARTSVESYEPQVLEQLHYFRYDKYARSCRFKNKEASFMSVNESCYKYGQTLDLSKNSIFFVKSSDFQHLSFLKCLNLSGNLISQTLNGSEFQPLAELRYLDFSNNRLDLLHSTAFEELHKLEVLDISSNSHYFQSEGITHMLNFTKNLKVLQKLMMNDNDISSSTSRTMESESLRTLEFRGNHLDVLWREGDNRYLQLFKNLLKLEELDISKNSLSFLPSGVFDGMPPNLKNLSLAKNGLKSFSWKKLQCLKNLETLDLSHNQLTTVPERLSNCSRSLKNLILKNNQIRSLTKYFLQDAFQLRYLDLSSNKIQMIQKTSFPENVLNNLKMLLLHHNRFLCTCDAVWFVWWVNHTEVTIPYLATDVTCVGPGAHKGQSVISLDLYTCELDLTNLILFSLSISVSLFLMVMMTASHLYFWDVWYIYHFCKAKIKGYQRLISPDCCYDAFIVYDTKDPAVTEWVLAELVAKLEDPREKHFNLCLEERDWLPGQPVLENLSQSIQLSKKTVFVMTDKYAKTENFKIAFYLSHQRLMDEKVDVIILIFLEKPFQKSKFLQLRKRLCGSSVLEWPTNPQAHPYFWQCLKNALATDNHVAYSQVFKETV
# Experiment: Assay on agonistic activity for human-derived receptor TLR7 (HEK-Blue hTLR7 cells, HEK-Blue Detection Medium)
# Type: cell-based
# Details: 16 h incubation, absorbance at 655 nm
# Method: HEK-Blue™ hTLR7 cells (InvivoGen, hkb-htlr7) were cultured in a DMEM complete medium (Gibco, 12100) containing 10% FBS (Invitrogen, 10099141), 1% P/S (Invitrogen, 15140122), 10 μg/mL Blasticidin (InvivoGen, ant-bl-1), 100 μg/mL Zeocin (InvivoGen, ant-zn-1), and 100 μg/mL Normocin (InvivoGen, ant-nr-1). The cells were cultured in an incubator at 37° C. with 5% CO2. When HEK-Blue™ hTLR7 cells reached a growth density of 70%-80%, cell passage was needed.
# The agonistic activity for the human-derived receptor TLR7 by HEK-Blue™ hTLR7 cells was assayed by HEK-Blue™ Detection Medium (InvivoGen, hd-det2). First, a bag of HEK-Blue™ Detection Medium powder was dissolved in 50 mL of ultra-pure sterile water for complete dissolution, and then the dissolved medium was filtered into a new 50 mL centrifuge tube through a 0.22 μm filter. Finally, antibiotics were added into the filtered detection medium until the final concentration was 1% for P/S and 100 μg/mL for Normocin. HEK-Blue™ Detection Medium was pre-heated to 37° C. in advance on the day of the assay on the activity for the TLR7 receptor, and the temperature was always maintained at 37° C.
# The compound powder was dissolved in 100% DMSO (Sigma, D2650-100ML) to obtain a 10 mM stock solution, and the compound was completely dissolved by shaking with an oscillator. The stock solution of the compound was subjected to a 5-fold dilution to 2 mM with 100% DMSO. This was followed by a 3-fold serial dilution for a total of 8 concentration gradients. Then, each of the concentration gradients was subjected to a 20-fold dilution to 100 μM, 33.3 μM, 11.1 μM, 3.7 μM, 1.23 μM, […], 0.114 μM, and 0.05 μM using HEK-Blue™ Detection Medium. 20 μL of each of the dilutions was added to a 96-well cell culture plate (Corning, 3599).
# On the day of the assay on the agonistic activity for the human-detived receptor TLR7, HEK-Blue™ hTLR7 cells has a growth density of 70%-80%, and the cell medium was removed. 1 mL of cell dissociation buffer (Gibco, 13151-014) was added to each 100 mm cell culture dish, and the cells were incubated in an incubator at 37° C. for 5 min. The cells were pipetted using a DMEM cell medium to obtain a single cell suspension, which was then centrifuged at 1000 rpm for 10 min to collect the cell pellet. The cell pellet was resuspended with HEK-Blue™ Detection Medium pre heated to 37° C. The cells were counted and diluted to 220,000 cells/mL. Finally, 180 μL of cell suspension (40,000 cells/well) was added to each well of the 96-well cell culture plate to which the compound had been added, and the cell suspension was mixed with the compound using a pipettor. Final concentrations of the compound were 10 μM, 3.3 μM, 1.1 μM, 0.37 μM, 0.12 μM, 0.04 μM, 0.01 μM, and 0.005 μM. After incubation in an incubator at 37° C. for 16 h, the absorbance was read at 655 nm using an M5e microplate reader (MD, USA).
# The EC50 of the compound was calculated using the software GraphPad Prism (GraphPad Software, USA). The background reading of the detection culture was subtracted from the absorbance readings at 655 nm of all wells of the 96-well plate, the ratio of each well to the negative control well (the well without the compound) was calculated, and then the percentage of the ratio of each well to the positive control well (the well treated with 10 μM positive compound), i.e., the percentage of activity, was calculated. Finally, the sigmoidal dose-response (variable slope) curve between the percentage of activity and the concentration of the compound was calculated using the software GraphPad Prism to calculate the EC50 of the compound. […]
EC50 (read-out: EC50),EC50 (read-out: hTLR7 EC50),SMILES
< 50 nM,55 nM,"CSc1nc2c(N)nc3ccccc3c2n1Cc1ccc(CN2CCCC2)cc1 [Example 40, 2-(methylthio)-1-(4-(pyrrolidin-1-ylmethyl)benzyl)-1H-imidazo[4,5-c]quinoline-4-amine]"
–,> 10000 nM,"COc1nc2c(N)nc3ccccc3c2n1Cc1ccc(CN2CCCC2)cc1 [Comparative Example 1, 2-methoxy-1-((4-((pyrrolidin-1-yl)methyl)phenyl)methyl)-1H-imidazo[4,5-c]quinolin-4-amine trifluoroacetate, reference compound]"
< 50 nM,28.4 nM,COc1cc(CN(C)C)ccc1Cn1c(SC)nc2c(N)nc3ccccc3c21 [Example 240]
< 50 nM,43.6 nM,CSc1nc2c(N)nc3ccccc3c2n1Cc1ccc(N2CCN(C)CC2)nc1 [Example 199]
